Literature values, collected in patent US20160115147A1, “PRO-DRUG COMPOUNDS” (Proximagen Limited, priority 2013, published 2016).

Columns and labels:
[1] = system: unique stereo-selective site in human brain
[2] = system: unique stereo-selective site in rat brain

CC(=O)c1ccc2c(c1)[C@H](NC(=O)c1ccc(F)c(Cl)c1)[C@H](O)C(C)(C)O2 [Tonabersat]
binding affinity to unique stereo-selective site [1]: high affinity | binding affinity to unique stereo-selective site [2]: high affinity
